From US6358919B1 (priority 1997, dated 2002)

Tested on: influenza virus A/PR/8/34(H1N1)
Experiment: ELISA inhibition of influenza virus binding to immobilised GM3
Details: 1 nmol GM3 per well, virus suspension 32 HAU, pre-incubated at 4° C. for two hours

CC(=O)N[C@H]1[C@H]([C@H](O)[C@H](O)CO)O[C@@](O[C@H]2[C@@H](O)[C@@H](CO)O[C@@H](O[C@H]3[C@H](O)[C@@H](O)C(O)O[C@@H]3CO)[C@@H]2O)(C(=O)O)C[C@@H]1O (stereo partly shown) [Sialyl lactose] showed an IC50 per molecule of 1.5e-07 mol.
